Source: article PMC5503626, “GLUT1-mediated selective tumor targeting with fluorine containing platinum(II) glycoconjugates” (Oncotarget, 2017)

Legend:
[1] = tested on: MCF7 (human breast cancer cell line); experiment: MTS cytotoxicity assay, MCF7; format: cell-based; conditions: 72 h, mean ± SD
Protocol: (§1) The cisplatin stock solution was prepared in PBS.

[2] = tested on: DU145 (human prostate cancer cell line); experiment: MTS cytotoxicity assay, DU145; format: cell-based; conditions: 72 h, mean ± SD
Protocol: as §1

[3] = tested on: HT29 (human colon cancer cell line); conditions: read-out: IC50 (μM) HT29; MTS assay, 72 h, mean ± SD
Protocol: The human colon cancer (HT29), breast cancer (MCF7), prostate cancer (DU145) and ovarian cancer (SK-OV-3) cell lines, were obtained from Central Institute of Pharmaceutical Research, CSPC Pharmaceutical Group, China. The human lung cancer cell lines H460 and A549 were purchased from the American Type Culture Collection (ATCC). […] MCF7 and SK-OV-3 were cultured in advanced Dulbecco's modified Eagle medium (DMEM), and other cell lines were cultured as adherent monolayer in RPMI-1640 supplemented with 1% (w/v) glutamine and 10% (v/v) fetal bovine serum (Gibco) at 37°C under a humidified atmosphere containing 5% CO2 and 95% air.
Cytotoxicity assays were carried out by the Celltiter 96 aqueous nonradioactive cell proliferation assay (Promega, Madison, WI). Cells were harvested by trypsinization and seeded in a 96-well flat-bottomed microplate in volumes of 100 μL at the following appropriate densities: 5.0 × 10^3 (A549), 8.0 × 10^3 (HT29), and 3.0 × 10^3 (H460), 5.0 × 10^3 (SKOV3), 8.0 × 10^3 (MCF7), 8.0 × 10^3 (DU145) cells per well. After being allowed to settle and resume exponential growth for 24 h, the cells were treated either with vehicle or with appropriate serial dilutions of the complexes. […] All the tested compounds were dissolved at room temperature prior to use and serially diluted in medium. Cells were incubated in a humidified atmosphere of 5% CO2 at 37°C for 72h. After incubation, 20 μL of MTS/PMS solution were added to each well and the mixtures were allowed to equilibrate for 2 h. The absorbance of MTS products was measured spectrophotometrically at 490 nm with microplate reader (VERSAmax, USA). The IC50 values of each test sample were calculated from nonlinear curve fits using dose-response equation in GraphPad Prism (La Jolla, CA). Experimental conditions were performed in five replicates and the calculated IC50 values are averages of three individual experiments.

[4] = tested on: L1210 leukemia bearing DBA/2 mice; conditions: 5a 11 mg/kg (18% MTD) vs oxaliplatin 7 mg/kg (70% MTD), i.p., days 1, 5, 9
Protocol: The same male DBA/2 mice were used for in vivo efficacy study. Mice were kept in a pathogen-free environment under a condition of constant photoperiod. […] Six mice for treatment groups and ten mice for control group were used for this in vivo study. L1210 murine leukemia cells (1 × 10^6) were injected intraperitoneally into DBA/2 mice on day 0. […] Control group of ten mice each received injections of sterile saline. Animals were observed daily for clinical signs of toxicity and body weight was measured throughout the study.

BALB/c nude mice = conditions: previous study; cited from earlier work
[5] = tested on: H460 (human lung cancer cell line); experiment: MTS cytotoxicity assay, H460; format: cell-based; conditions: 72 h, mean ± SD
Protocol: as §1

[6] = tested on: HT29 tumor xenograft BALB/c nude mice model
Protocol: Female BALB/c nude mice were inoculated by subcutaneous injection of HT29 human colon cancer cells (5 × 10^6). For the treatment groups, drug dosage was adjusted for average body weight for each group. Injection volume was 10 mL/kg. Each treatment group contains eight mice and control animals used ten mice and received injections of sterile saline. Treatments were initiated when the tumor reached a volume of 100-300 mm^3 in all mice. Animals received multiple treatments intravenously on days 0, 7, 14 and 21. […] Saline (5% v/v) was administered to the vehicle control group. Tumor volume was assessed regularly by measuring length (l) and width (w) with caliper and calculated using the formula V = lw^2/2. Body weight was recorded and used as a parameter of systemic toxicity. All mice were sacrificed on the 46th day of the experiment, and the tumor weight was measured.

[7] = tested on: 5′-Guanosine Monophosphate (5′-GMP); experiment: Reaction kinetics with 5′-GMP by 1H NMR; conditions: 5 mM complex, 10 mM 5′-GMP, 5 mM NaCl, pH 7.2-7.4, 37°C
Protocol: A 5 mM solution of the sodium chloride was added to the mixture to simulate the intracellular environment.
Kinetic study of the substitution reactions between sugar conjugated platinum complexes with 5′-Guanosine Monophosphate was performed on Bruker Avance 400 MHz spectrometer by ^1H NMR analysis. Platinum complex (5 mM) and 5′-GMP (10 mM) were freshly prepared in deuterium oxide (D2O) at 37°C. A 5 mM solution of the NaCl in D2O was added to the mixture just before running the spectra. All samples were incubated at 37°C in a water bath to simulate physiological conditions and 1H NMR spectra were recorded at 295 K over a period of several days.

DBA/2 mice [8] = conditions: previous study; cited from earlier work
DBA/2 mice [9] = conditions: both mouse models (DBA/2 and BALB/c)
Protocol: The maximum tolerated dose is defined as the highest tolerated dose (mean weight loss < 15%) without causing major (life-threatening) toxicity (< 15% toxic deaths) in the study.
Three weeks-old male DBA/2 mice purchased from Beijing Vital River Laboratory Animal Technology Co. Ltd. were used for MTD study. Determination of MTD was performed as previously described [22]. […] Physiological observations (body weight and food consumption) were recorded. The maximum tolerated dose is defined as the highest tolerated dose (mean weight loss < 15%) and not cause major (life-threatening) toxicity (< 15% toxic deaths) during the study.

[10] = tested on: HT29, empty vector transfected and shGLUT1-transfected cells; experiment: Cellular platinum accumulation (ICP-MS); format: cell-based, human; conditions: 200 μM, 2 h, DNA isolated
Protocol: The uptake values are depicted in Figure 5H.
HT29 cells were seeded in 10 cm dishes at densities of 6 × 10^6 cells/dish and kept at 37°C in a humidified 5% CO2 incubator. […] The cell suspensions were centrifuged at 2500 rpm for 10 min and remove the PBS. Vortex vigorously to resuspend cells. Nuclei lysis solution was added to lyse the cells. DNA was extracted with TIANamp Genomic DNA kit (TIANGEN). The extracted DNA was dissolved in concentrated nitric acid (0.05 mL) and diluted with 4.95 mL of deionized water (final concentration 1% v/v) for determining the platinum content. The platinum content taken up by the cells was determined by Agilent 7700X ICP-MS (Agilent Technologies, Tokyo, Japan). Calibrations were done using standard solutions containing 6.25, 12.5, 25, 50 and 100 ppb platinum.

[11] = tested on: SKOV3 (human ovarian cancer cell line); experiment: MTS cytotoxicity assay, SKOV3; format: cell-based; conditions: for IC50: MTS assay, 72 h, mean ± SD
Protocol: as §1

[12] = tested on: A549 (human lung carcinoma); experiment: MTS cytotoxicity assay, A549; format: cell-based; conditions: for IC50: MTS assay, 72 h, mean ± SD
Protocol: as §1

pUC18 plasmid DNA = experiment: Plasmid unwinding assay (gel electrophoresis); conditions: 12.5 to 100 μM, 37°C
Protocol: To assess if the in vitro anti-proliferative activity of the sugar conjugates may be at the DNA adduct level, a plasmid unwinding assay was performed. The local untwisting of closed-circular supercoiled DNA induced by different types of platinum−DNA adducts can be determined by this assay [36]. […] On agarose gels, supercoiled plasmid DNA (form I) migrates faster in an electrical field than the nicked circle (form II).
After the incubation period, drug-DNA mixtures were loaded onto 0.8% agarose gel and electrophoresis was performed in Tris-acetate/EDTA buffer (TAE) for 1.5 h at 80 V. The gel was stained with GelRed^TM nucleic acid dye, visualized and photographed on the Bio-Rad Trans illuminator IEC 1010 (Bio-Rad, Hercules, CA).

[13] = tested on: cisplatin resistant HT29cisR human colon carcinoma cell line; experiment: Cytotoxicity in cisplatin resistant cells; format: cell-based; conditions: read-out: IC50 against HT29cisR
Protocol: as §1

[14] = tested on: HT29 human colon cancer cell line; experiment: GLUT1 inhibitor (quercetin) dependent cytotoxicity assay; format: cell-based; conditions: 48 h
Protocol: (E) RT-PCR analysis of GLUT1 mRNA expression in empty vector transfected and shGLUT1-transfected cells. NT: HT29 cells; mock: HT29 cells transfected by empty vector pLKO.1; shRNA1: HT29 cells transfected by shGLUT1-1 and selected by 1 μg/mL of puromycin; shRNA2: HT29 cells transfected by shGLUT1-2 and selected by 1 μg/mL of puromycin. […] HT29 exposed with PBS or quercetin alone were served as negative control. […] Data was calculated from three independent experiments. *P < 0.05, compared to the control group.
HT29 cells were grown in monolayer and were treated with and without quercetin, followed by exposure to 100 μM of platinum(II) complexes for 48 h. MTS assay was used to analyze the cell viability and the effects of GLUT1 inhibitor quercetin on cytotoxicity.

Row | SMILES | IC50 [1] [µM] | IC50 [2] [µM] | IC50 [3] [µM] | lifespan and survival rate [4] | MTD (BALB/c nude mice) [mpk] | IC50 [5] [µM] | tumor volume ([6]; 25 mg/kg i.v., days 0, 7, 14, 21) | reaction with 5′-GMP compared to oxaliplatin [7] | MTD (DBA/2 mice [8]) [mpk] | MTD higher than oxaliplatin (DBA/2 mice [9]) [fold] | platinum uptake (intracellular platinum accumulation) [10] | IC50 [11] [µM] | IC50 [12] [µM] | activity higher than oxaliplatin in A549 ([12]; versus oxaliplatin) [fold] | lower IC50 values than oxaliplatin in SK-OV-3 ([11]; versus oxaliplatin) | mobility of supercoiled and singly-nicked plasmid DNA bands (pUC18 plasmid DNA) | IC50 [13] [µM] | dependency of cell-killing potency on quercetin ([14]; 100 μM platinum complex, with or without quercetin (20 μM)) | body weight change versus vehicle group ([6]; 5a 25 mg/kg, oxaliplatin 7 mg/kg, i.v. qw x 4) | cytotoxic effect of quercetin alone ([14]; quercetin 20 μM alone)
1 | O=C1[O][Pt]2([NH][C@@H]3CCCC[C@H]3[NH]2)[O]C(=O)C1(F)CCO[C@H]1O[C@H](CO)[C@@H](O)[C@H](O)[C@H]1O (stereo partly drawn) [5a, (trans-R,R-cyclohexane-1,2-diamine)-2-fluoromalonatoplatinum(II)-α-D-glucose conjugate] | 0.61 ± 0.13 | 5.98 ± 0.16 | 0.53 ± 0.16 | overwhelming superiority in lifespan and survival rate | 36 | 11.05 ± 0.11 | statistically significant tumor shrinkage | faster reactions | 60 | ~5 | greater than that in HT29-shRNA1 and HT29-shRNA2 cells | 16.7 ± 0.32 | 0.35 ± 0.17 | 2 |  |  |  |  |  | 
2 | O=C1[O][Pt]2([NH][C@@H]3CCCC[C@H]3[NH]2)[O]C(=O)C1(F)CCO[C@H]1O[C@H](CO)[C@@H](O)[C@H](O)[C@@H]1O (stereo partly drawn) [5b, (trans-R,R-cyclohexane-1,2-diamine)-2-fluoromalonatoplatinum(II)-α-D-mannose conjugate] | 0.41 ± 0.09 | 2.6 ± 0.18 | 2.16 ± 0.18 |  |  | 10.2 ± 0.15 |  | faster reactions |  |  |  | 2.22 ± 0.19 | 0.65 ± 0.1 |  | up to 70% |  |  |  |  | 
3 | O=C1[O][Pt]2([NH][C@@H]3CCCC[C@H]3[NH]2)[O]C(=O)C1(F)CCO[C@@H]1O[C@H](CO)[C@H](O)[C@H](O)[C@H]1O (stereo partly drawn) [5c, (trans-R,R-cyclohexane-1,2-diamine)-2-fluoromalonatoplatinum(II)-β-D-galactose conjugate] | 9.82 ± 0.12 | 5.11 ± 0.14 | 1.07 ± 0.12 |  |  | 10 ± 0.15 |  | faster reactions |  |  |  | 22.05 ± 0.2 | 4.9 ± 0.16 |  |  |  |  |  |  | 
4 | N.N.[Cl][Pt][Cl] [Cisplatin, cis-(NH3)2PtCl2] |  |  |  |  |  |  |  |  |  |  |  |  |  |  |  | increased and showed concentration dependency | 19.4 |  |  | 
5 | O=C1[O][Pt]2([NH][C@@H]3CCCC[C@H]3[NH]2)[O]C1=O [Oxaliplatin, reference compound] | 0.79 ± 0.11 | 2.05 ± 0.16 | 5.05 ± 0.2 |  | 7 | 22.11 ± 0.17 |  |  | 10 |  |  | 8.54 ± 0.18 | 0.86 ± 0.09 |  |  | increased and showed concentration dependency |  | did not exhibit quercetin dependent cytotoxicity | no significant difference | 
6 | O=c1c(O)c(-c2ccc(O)c(O)c2)oc2cc(O)cc(O)c12 [quercetin] |  |  |  |  |  |  |  |  |  |  |  |  |  |  |  |  |  |  |  | did not exert any cytotoxic effect
